According to patent US20240308996A1, “PYRIDOPYRIDINES AND DERIVATIVES THEREOF AS SELECTIVE KINASE INHIBITORS” (University of Sharjah, priority 2023, published 2024):

Columns and labels:
Assay type in all cases: cell-based
UACC-257 = test: NCI-60 cell line panel: UACC-257; conditions: Melanoma; for IC50: Homo sapiens; for TGI: total growth inhibition
Procedure: (§1) It was carried out at the NCI, Bethesda, MD, USA, utilizing their standard protocol.

T-47D = test: NCI-60 cell line panel: T-47D; conditions: Breast Cancer; for TGI: total growth inhibition; for IC50: Homo sapiens, T47D
Procedure: as §1

PC-3 = test: NCI-60 cell line panel: PC-3; conditions: Prostate Cancer; for IC50: Homo sapiens; for TGI: total growth inhibition
Procedure: as §1

MOLT-4 = test: NCI-60 cell line panel: MOLT-4; parameters: TGI: unit not given here; conditions: Leukemia; for IC50: Homo sapiens; for TGI: total growth inhibition
Procedure: as §1

OVCAR-4 = test: NCI-60 cell line panel: OVCAR-4; conditions: Ovarian Cancer; for IC50: Homo sapiens; for TGI: total growth inhibition, in µM (unit assumed)
Procedure: as §1

OVCAR-5 = test: NCI-60 cell line panel: OVCAR-5; conditions: Ovarian Cancer; for IC50: Homo sapiens; for TGI: total growth inhibition
Procedure: as §1

HOP-62 = test: NCI-60 cell line panel: HOP-62; conditions: Non-Small Cell Lung Cancer; for IC50: Homo sapiens; for TGI: total growth inhibition
Procedure: as §1

HCT-116 = test: NCI-60 cell line panel: HCT-116; conditions: Colon Cancer; for TGI: total growth inhibition; for IC50: Homo sapiens
Procedure: as §1

MCF7 = test: NCI-60 cell line panel: MCF7; conditions: Breast Cancer; for TGI: total growth inhibition; for IC50: Homo sapiens
Procedure: as §1

NCI-H226 = test: NCI-60 cell line panel: NCI-H226; conditions: Non-Small Cell Lung Cancer; for IC50: Homo sapiens; for TGI: total growth inhibition
Procedure: as §1

MALME-3M = test: NCI-60 cell line panel: MALME-3M; conditions: Melanoma; for IC50: Homo sapiens; for TGI: total growth inhibition, in µM (unit assumed)
Procedure: as §1

SF-539 = test: NCI-60 cell line panel: SF-539; conditions: CNS Cancer; for TGI: total growth inhibition; for IC50: Homo sapiens
Procedure: as §1

BT-549 = test: NCI-60 cell line panel: BT-549; conditions: Breast Cancer; for TGI: total growth inhibition; for IC50: Homo sapiens
Procedure: as §1

NCI-H460 = test: NCI-60 cell line panel: NCI-H460; conditions: Non-Small Cell Lung Cancer; for IC50: Homo sapiens; for TGI: total growth inhibition
Procedure: as §1

EKVX = test: NCI-60 cell line panel: EKVX; conditions: Non-Small Cell Lung Cancer; for IC50: Homo sapiens; for TGI: total growth inhibition, in µM (unit assumed)
Procedure: as §1

[1] = test system: hepatocellular carcinoma cell lines; test: Screening against HCC cell lines
Procedure: The target compounds were tested against hepatocellular carcinoma cell lines. Compounds 1j. 13a. 13b. 13c. […] The mean inhibition percentage values are illustrated in Table 9.
Two HCC cell lines (Hep3B and HepG2) were used for screening the antiproliferative activity of the synthesized compounds. The cell lines were obtained from the European Collection of Cell Cultures (ECACC, UK) and maintained in Dulbecco's Modified Eagle Medium (DMEM: Sigma-Aldrich) supplemented with 10% fetal bovine serum (FBS) and 1% penicillin/streptomycin and incubated at 37° C. in a 5% CO2 air atmosphere. In addition, WI-38 normal cell line was used to investigate the safety of these compounds.
MTT assay was conducted to calculate the IC50 of the compounds following the reported procedure . Briefly, the cells were seeded in 96-well tissue culture plates with a density of 5×10^4 cells/well and incubated overnight at 37° C. in a 5% CO2 air atmosphere. After that, cells were treated with the newly synthesized compounds or sorafenib as a positive control. DMSO was used as a negative control. After 48 h, the media were aspirated, and replaced with media containing 0.5 mg/mL of MTT tetrazolium dye (Sigma-Aldrich) for 2 h at 37° C. Finally, the media were removed and 200 μL of DMSO was added to solubilize the formazan crystals. Absorbance was then measured at 570 nm using Varioskan Flash multimode plate reader (Thermo Scientific, Massachusetts, USA).

SF-295 = test: NCI-60 cell line panel: SF-295; conditions: CNS Cancer; for TGI: total growth inhibition, unit assumed; for IC50: Homo sapiens
Procedure: as §1

SNB-19 = test: NCI-60 cell line panel: SNB-19; conditions: CNS Cancer; for TGI: total growth inhibition; for IC50: Homo sapiens
Procedure: as §1

NCI/ADR-RES = test: NCI-60 cell line panel: NCI/ADR-RES; parameters: TGI: unit not given here; conditions: Ovarian Cancer; for IC50: Homo sapiens; for TGI: total growth inhibition
Procedure: as §1

NCI-H23 = test: NCI-60 cell line panel: NCI-H23; conditions: Non-Small Cell Lung Cancer; for IC50: Homo sapiens; for TGI: total growth inhibition
Procedure: as §1

MDA-MB-468 = test: NCI-60 cell line panel: MDA-MB-468; conditions: Breast Cancer; for TGI: total growth inhibition; for IC50: Homo sapiens
Procedure: as §1

MDA-MB-231/ATCC = test: NCI-60 cell line panel: MDA-MB-231/ATCC; conditions: Breast Cancer; for TGI: total growth inhibition; for IC50: Homo sapiens
Procedure: as §1

CAKI-1 = test: NCI-60 cell line panel: CAKI-1; parameters: TGI: unit not given here; conditions: Renal Cancer; for IC50: Homo sapiens; for TGI: total growth inhibition
Procedure: as §1

SNB-75 = test: NCI-60 cell line panel: SNB-75; parameters: TGI: unit not given here; conditions: CNS Cancer; for TGI: total growth inhibition; for IC50: Homo sapiens
Procedure: as §1

TK-10 = test: NCI-60 cell line panel: TK-10; conditions: Renal Cancer; for IC50: Homo sapiens; for TGI: total growth inhibition
Procedure: as §1

OVCAR-3 = test: NCI-60 cell line panel: OVCAR-3; conditions: Ovarian Cancer; for IC50: Homo sapiens; for TGI: total growth inhibition
Procedure: as §1

U251 = test: NCI-60 cell line panel: U251; parameters: TGI: unit not given here; conditions: for TGI: CNS Cancer, total growth inhibition; for IC50: Homo sapiens, U-251, CNS Cancer
Procedure: as §1

SK-MEL-2 = test: NCI-60 cell line panel: SK-MEL-2; parameters: TGI: unit not given here; conditions: Melanoma; for IC50: Homo sapiens; for TGI: total growth inhibition
Procedure: as §1

UO-31 = test: NCI-60 cell line panel: UO-31; parameters: TGI: unit not given here; conditions: Renal Cancer; for IC50: Homo sapiens; for TGI: total growth inhibition
Procedure: as §1

COLO 205 = test: NCI-60 cell line panel: COLO 205; parameters: TGI: unit not given here; conditions: Colon Cancer; for TGI: total growth inhibition; for IC50: Homo sapiens
Procedure: as §1

CC(C)NC(=O)c1cc(-c2ccc(NC(=O)Nc3ccc(N4CCN(C)CC4)c(C(F)(F)F)c3)cc2)nc2cccnc12 [Compound 13e, N-Isopropyl-2-(4-(3-(4-(4-methylpiperazin-1-yl)-3-(trifluoromethyl)phenyl)ureido)phenyl)-1,5-naphthyridine-4-carboxamide]
IC50 (UACC-257): 690 nM | TGI (UACC-257): 1430 nM | TGI (T-47D): 24700 nM | IC50 (T-47D): 7620 nM | IC50 (PC-3): 720 nM | TGI (PC-3): 1520 nM | IC50 (MOLT-4): 760 nM | TGI (MOLT-4): 2.89 | IC50 (OVCAR-4): 740 nM | TGI (OVCAR-4): 1.62 | IC50 (OVCAR-5): 650 nM | TGI (OVCAR-5): 1230 nM | IC50 (HOP-62): 870 nM | TGI (HOP-62): 1940 nM | TGI (HCT-116): 1350 nM | IC50 (HCT-116): 690 nM | TGI (MCF7): 1300 nM | IC50 (MCF7): 650 nM | IC50 (NCI-H226): 5600 nM | TGI (NCI-H226): 14700 nM | IC50 (MALME-3M): 640 nM | TGI (MALME-3M): 1.18 | TGI (SF-539): 990 nM | IC50 (SF-539): 500 nM | TGI (BT-549): 7410 nM | IC50 (BT-549): 2100 nM | IC50 (NCI-H460): 700 nM | TGI (NCI-H460): 1310 nM | IC50 (EKVX): 770 nM | TGI (EKVX): 1.49 | inhibition activity against hepatocellular carcinoma cell lines compared with sorafenib [1]: higher inhibition activity than sorafenib | TGI (SF-295): 1130 nM | IC50 (SF-295): 570 nM | TGI (SNB-19): 1560 nM | IC50 (SNB-19): 730 nM | IC50 (NCI/ADR-RES): 1170 nM | TGI (NCI/ADR-RES): 3.71 | IC50 (NCI-H23): 730 nM | TGI (NCI-H23): 1460 nM | TGI (MDA-MB-468): 1360 nM | IC50 (MDA-MB-468): 710 nM | TGI (MDA-MB-231/ATCC): 1260 nM | IC50 (MDA-MB-231/ATCC): 670 nM | IC50 (CAKI-1): 650 nM | TGI (CAKI-1): 1.22 | TGI (SNB-75): 3.97 | IC50 (SNB-75): 590 nM | IC50 (TK-10): 710 nM | TGI (TK-10): 1310 nM | IC50 (OVCAR-3): 650 nM | TGI (OVCAR-3): 1330 nM | TGI (U251): 1.34 | IC50 (U251): 670 nM | IC50 (SK-MEL-2): 1000 nM | TGI (SK-MEL-2): 2.60 | IC50 (UO-31): 590 nM | TGI (UO-31): 1.11 | TGI (COLO 205): 1.86 | IC50 (COLO 205): 850 nM

CCN1CCN(c2ccc(NC(=O)Nc3ccc(-c4cc(C(=O)NC(C)C)c5ncccc5n4)cc3)cc2C(F)(F)F)CC1 [Compound 13f, 2-(4-(3-(4-(4-Ethylpiperazin-1-yl)-3-(trifluoromethyl)phenyl)ureido)phenyl)-N-isopropyl-1,5-naphthyridine-4-carboxamide]
IC50 (UACC-257): 3450 nM | TGI (UACC-257): 8110 nM | TGI (T-47D): 8740 nM | IC50 (T-47D): 1930 nM | IC50 (PC-3): 760 nM | TGI (PC-3): 2100 nM | IC50 (MOLT-4): 1110 nM | TGI (MOLT-4): 30.60 | IC50 (OVCAR-4): 880 nM | TGI (OVCAR-4): 2.45 | IC50 (OVCAR-5): 1600 nM | TGI (OVCAR-5): 6090 nM | IC50 (HOP-62): 3830 nM | TGI (HOP-62): 8890 nM | TGI (HCT-116): 1300 nM | IC50 (HCT-116): 640 nM | TGI (MCF7): 1500 nM | IC50 (MCF7): 630 nM | IC50 (NCI-H226): 5020 nM | TGI (NCI-H226): 12500 nM | IC50 (MALME-3M): 580 nM | TGI (MALME-3M): 1.05 | TGI (SF-539): 1020 nM | IC50 (SF-539): 530 nM | TGI (BT-549): 9570 nM | IC50 (BT-549): 4830 nM | IC50 (NCI-H460): 620 nM | TGI (NCI-H460): 1180 nM | IC50 (EKVX): 1610 nM | TGI (EKVX): 5.82 | inhibition activity against hepatocellular carcinoma cell lines compared with sorafenib [1]: higher inhibition activity than sorafenib | TGI (SF-295): 1140 nM | IC50 (SF-295): 580 nM | TGI (SNB-19): 9120 nM | IC50 (SNB-19): 4240 nM | IC50 (NCI/ADR-RES): 3660 nM | TGI (NCI/ADR-RES): 10.00 | IC50 (NCI-H23): 2050 nM | TGI (NCI-H23): 7270 nM | TGI (MDA-MB-468): 1850 nM | IC50 (MDA-MB-468): 770 nM | TGI (MDA-MB-231/ATCC): 1180 nM | IC50 (MDA-MB-231/ATCC): 610 nM | IC50 (CAKI-1): 800 nM | TGI (CAKI-1): 2.08 | TGI (SNB-75): 5.14 | IC50 (SNB-75): 980 nM | IC50 (TK-10): 1350 nM | TGI (TK-10): 4870 nM | IC50 (OVCAR-3): 640 nM | TGI (OVCAR-3): 1360 nM | TGI (U251): 4.82 | IC50 (U251): 1240 nM | IC50 (SK-MEL-2): 4820 nM | TGI (SK-MEL-2): 9.89 | IC50 (UO-31): 2180 nM | TGI (UO-31): 6.81 | TGI (COLO 205): 2.71 | IC50 (COLO 205): 930 nM
